Measurements published in patent US6706663B2, “Herbicidal 3-heterocyclic substituted benzisothiazole and benzisoxazole compounds” (Wyeth, priority 2000, dated 2004).

What was measured:
[1] = system: AMBEL (Ambrosia artemisifolia); assay: Preemergence herbicidal evaluation; format: in vivo, L.; details: Rate 0.0620 kg/ha; rated 4-5 weeks after treatment
Text: (§1) Results of herbicide evaluation are expressed on a rating scale (0-9). The scale is based upon a visual observation of plant stand, vigor, malformation, size, chlorosis and overall plant appearance as compared with a control.
(§2) The preemergence herbicidal activity of the test compounds of the present invention is exemplified by the following tests in which the seeds of a variety of monocotyledonous and dicotyledonous plants are separately mixed with potting soil and planted on top of approximately one inch of soil in separate pint cups. […] The treated cups are then placed on greenhouse benches, watered and cared for in accordance with conventional greenhouse procedures. From four to five weeks after treatment, the tests are terminated and each cup is examined and rated according to the rating system provided in Example 87. The plant species used and the compounds evaluated are the same as those shown in Example 87.

[2] = system: CHEAL (Chenopodium album); assay: Preemergence herbicidal evaluation; format: in vivo, L.; details: Rate 0.0620 kg/ha; rated 4-5 weeks after treatment
Text: as §1, §2

[3] = system: CASOB (Cassia obtusifolia); assay: Preemergence herbicidal evaluation; format: in vivo, L.; details: Rate 0.0620 kg/ha; rated 4-5 weeks after treatment
Text: as §1, §2

ORYSAT (Rice, Tebonnet) [4] = assay: Postemergence herbicidal evaluation; format: in vivo, Oryza sativa, (L.) Tebonnet; details: postemergence
Procedure: (§3) In the tests, seedling plants are grown in jiffy flats for about two weeks. […] After spraying, the plants are placed on greenhouse benches and are cared for in accordance with conventional greenhouse procedures. From four to five weeks after treatment, the seedling plants are examined and rated according to the rating system set forth below. Where more than one test is involved for a given compound, the data are averaged.
as §1

[5] = system: ECHCG (Echinochloa crus-galli); assay: Postemergence herbicidal evaluation; format: in vivo, (L.) Beau; details: postemergence
Procedure: as §3, §1

[6] = system: IPOHE (Ipomoea hederacea); assay: Postemergence herbicidal evaluation; format: in vivo, (L.) Jacq.; details: postemergence
Procedure: as §3, §1

ZEAMX (Corn, Field) [7] = assay: Preemergence herbicidal evaluation; format: in vivo, Zea mays, L.; details: Rate 0.0620 kg/ha; rated 4-5 weeks after treatment
Text: as §1, §2

[8] = system: TRZAWR (Wheat, Winter, cv Riband); assay: Postemergence herbicidal evaluation; format: in vivo, Triticum aestivum; details: postemergence
Procedure: as §3, §1

GALAP (Galium aparine) [9] = assay: Preemergence herbicidal evaluation; format: in vivo; details: Rate 0.0620 kg/ha; rated 4-5 weeks after treatment
Text: as §1, §2

CYPIR (Cyperus iria) = assay: Flooded paddy, preemergence weed control; format: in vivo; details: rated 3-4 weeks after treatment, 0-9 rating scale
Procedure: as §1
(§4) Preemergence herbicidal activity under flooded paddy conditions is determined as follows: plant seeds or propagating organs are planted in the top 0.5 cm of silt loam soil in 32 oz. plastic containers with a diameter of 10.5 cm and no drainage holes. Water is added to these containers and maintained at 1.5 to 3 cm above the soil surface for the duration of the experiment. […] The treated containers are placed on greenhouse benches and cared for in accordance with conventional greenhouse procedures.

SETVI (Setaria viridis) [10] = assay: Preemergence herbicidal evaluation; format: in vivo, (L.) Beau; details: Rate 0.0620 kg/ha; rated 4-5 weeks after treatment
Text: as §1, §2

[11] = system: ECHCG (Echinochloa crus-galli); assay: Preemergence herbicidal evaluation; format: in vivo, (L.) Beau; details: Rate 0.0620 kg/ha; rated 4-5 weeks after treatment
Text: as §1, §2

[12] = system: MOOVA (Monochoria vaginalis); assay: Flooded paddy, preemergence weed control; format: in vivo, Presl.; details: rated 3-4 weeks after treatment, 0-9 rating scale
Procedure: as §1, §4

SETVI (Setaria viridis) [13] = assay: Postemergence herbicidal evaluation; format: in vivo, (L.) Beau; details: postemergence
Procedure: In the tests, seedling plants are grown in jiffy flats for about two weeks. The test compounds are dispersed in 50/50 acetone/water mixtures containing 0.5% TWEEN® 20, a polyoxyethylene sorbitan monolaurate surfactant of Atlas Chemical Industries, in sufficient quantities to provide the equivalent of about 0.0040 kg to 1.000 kg per hectare of active compound when applied to the plants through a spray nozzle operating at 40 psi for a predetermined time. After spraying, the plants are placed on greenhouse benches and are cared for in accordance with conventional greenhouse procedures. From four to five weeks after treatment, the seedling plants are examined and rated according to the rating system set forth below. Where more than one test is involved for a given compound, the data are averaged.
as §1

[14] = system: SAGPY (Sagittaria pygmaea); assay: Flooded paddy, preemergence weed control; format: in vivo, L.; details: rated 3-4 weeks after treatment, 0-9 rating scale
Procedure: as §1, §4

GALAP (Galium aparine) [15] = assay: Postemergence herbicidal evaluation; format: in vivo; details: postemergence
Procedure: as §3, §1

[16] = system: TRZAWR (Wheat, Winter, cv Riband); assay: Preemergence herbicidal evaluation; format: in vivo, Triticum aestivum; details: Rate 0.0620 kg/ha; rated 4-5 weeks after treatment
Text: as §1, §2

[17] = system: GLXMAW (Soybean, Williams); assay: Preemergence herbicidal evaluation; format: in vivo, Glycine max, (L.) Merr. cv Williams; details: Rate 0.0620 kg/ha; rated 4-5 weeks after treatment
Text: as §1, §2

[18] = system: ECHORC (Echinochloa oryzoides); assay: Flooded paddy, preemergence weed control; format: in vivo, Echinochloa oryzoides (Ard.) Fritsch.; details: rated 3-4 weeks after treatment, 0-9 rating scale
Procedure: as §1, §4

ZEAMX (Corn, Field) [19] = assay: Postemergence herbicidal evaluation; format: in vivo, Zea mays, L.; details: postemergence
Procedure: as §3, §1

[20] = system: AMBEL (Ambrosia artemisifolia); assay: Postemergence herbicidal evaluation; format: in vivo, L.; details: postemergence
Procedure: as §3, §1

[21] = system: CHEAL (Chenopodium album); assay: Postemergence herbicidal evaluation; format: in vivo, L.; details: postemergence
Procedure: as §3, §1

[22] = system: CASOB (Cassia obtusifolia); assay: Postemergence herbicidal evaluation; format: in vivo, L.; details: postemergence
Procedure: as §3, §1

ORYSAT (Rice, Tebonnet) [23] = assay: Preemergence herbicidal evaluation; format: in vivo, Oryza sativa, (L.) Tebonnet; details: Rate 0.0620 kg/ha; rated 4-5 weeks after treatment
Text: as §1, §2

[24] = system: ABUTH (Abutilon theophrasti); assay: Preemergence herbicidal evaluation; format: in vivo, Medic.; details: Rate 0.0620 kg/ha; rated 4-5 weeks after treatment
Text: as §1, §2

ORYSAT (Rice, Tebonnet) [25] = assay: Flooded paddy, post-transplant rice tolerance; format: in vivo, Oryza sativa, (L.) Tebonnet; details: flooded paddy, post-transplant rice, rated 3-4 weeks after treatment, 0-9 rating scale
Procedure: as §1
The tolerance of transplanted rice to post-transplanted herbicide application is determined as follows: two ten-day-old rice seedlings (cv. Tebonnet) are transplanted into silt loam soil in 32 oz. plastic containers with a diameter of 10.5 cm and no drainage holes. After transplanting, the containers are flooded and the water level is maintained at 1.5 to 3 cm above the soil surface. […] The treated containers are placed on greenhouse benches, watered such that the water level is maintained as stated above, and cared for in accordance with conventional greenhouse procedures.

[26] = system: ABUTH (Abutilon theophrasti); assay: Postemergence herbicidal evaluation; format: in vivo, Medic.; details: postemergence
Procedure: as §3, §1

[27] = system: IPOHE (Ipomoea hederacea); assay: Preemergence herbicidal evaluation; format: in vivo, (L.) Jacq.; details: Rate 0.0620 kg/ha; rated 4-5 weeks after treatment
Text: as §1, §2

[28] = system: GLXMAW (Soybean, Williams); assay: Postemergence herbicidal evaluation; format: in vivo, Glycine max, (L.) Merr. cv Williams; details: postemergence
Procedure: as §3, §1

## C[C@@H]1OC(c2nsc3cc(F)c(-n4c(=O)cc(C(F)(F)F)n(C)c4=O)cc23)O[C@@H]1C (stereo partly drawn) [Compound 63, 3-[3-[(4R,5S)-4,5-dimethyl-1,3-dioxolan-2-yl]-6-fluoro-1,2-benzisothiazol-5-yl]-1-methyl-6-(trifluoromethyl)uracil]
[1]
  Preemergence herbicidal rating AMBEL: 9.0
[2]
  Preemergence herbicidal rating CHEAL: 9.0
[3]
  Preemergence herbicidal rating CASOB: 9.0
ORYSAT (Rice, Tebonnet) [4]; rate 0.0320 kg/ha
  ORYSAT herbicidal rating: 5.0
ORYSAT (Rice, Tebonnet) [4]; rate 0.0620 kg/ha
  ORYSAT herbicidal rating: 6.0
[5]; rate 0.0320 kg/ha
  ECHCG herbicidal rating: 6.0
[5]; rate 0.0620 kg/ha
  ECHCG herbicidal rating: 7.0
[6]; rate 0.0320 kg/ha
  IPOHE herbicidal rating: 9.0
[6]; rate 0.0620 kg/ha
  IPOHE herbicidal rating: 9.0
ZEAMX (Corn, Field) [7]
  Preemergence herbicidal rating ZEAMX: 8.0
[8]; rate 0.0320 kg/ha
  TRZAWR herbicidal rating: 5.0
[8]; rate 0.0620 kg/ha
  TRZAWR herbicidal rating: 6.0
GALAP (Galium aparine) [9]
  Preemergence herbicidal rating GALAP: 9.0
CYPIR (Cyperus iria); rate 0.0080 kg/ha
  herbicidal rating, CYPIR: 4.0
CYPIR (Cyperus iria); rate 0.0320 kg/ha
  herbicidal rating, CYPIR: 9.0
CYPIR (Cyperus iria); rate 0.1250 kg/ha
  herbicidal rating, CYPIR: 9.0
SETVI (Setaria viridis) [10]
  Preemergence herbicidal rating SETVI: 9.0
[11]
  Preemergence herbicidal rating ECHCG: 9.0
[12]; rate 0.0080 kg/ha
  herbicidal rating, MOOVA: 3.0
[12]; rate 0.0320 kg/ha
  herbicidal rating, MOOVA: 9.0
[12]; rate 0.1250 kg/ha
  herbicidal rating, MOOVA: 9.0
SETVI (Setaria viridis) [13]; rate 0.0320 kg/ha
  SETVI herbicidal rating: 7.0
SETVI (Setaria viridis) [13]; rate 0.0620 kg/ha
  SETVI herbicidal rating: 9.0
[14]; rate 0.0080 kg/ha
  herbicidal rating, SAGPY: 3.0
[14]; rate 0.0320 kg/ha
  herbicidal rating, SAGPY: 7.0
[14]; rate 0.1250 kg/ha
  herbicidal rating, SAGPY: 9.0
GALAP (Galium aparine) [15]; rate 0.0320 kg/ha
  GALAP herbicidal rating: 9.0
GALAP (Galium aparine) [15]; rate 0.0620 kg/ha
  GALAP herbicidal rating: 9.0
[16]
  Preemergence herbicidal rating TRZAWR: 7.0
[17]
  Preemergence herbicidal rating GLXMAW: 9.0
[18]; rate 0.0080 kg/ha
  herbicidal rating, ECHORC: 9.0
[18]; rate 0.0320 kg/ha
  herbicidal rating, ECHORC: 9.0
[18]; rate 0.1250 kg/ha
  herbicidal rating, ECHORC: 9.0
ZEAMX (Corn, Field) [19]; rate 0.0320 kg/ha
  ZEAMX herbicidal rating: 5.5
ZEAMX (Corn, Field) [19]; rate 0.0620 kg/ha
  ZEAMX herbicidal rating: 6.0
[20]; rate 0.0320 kg/ha
  AMBEL herbicidal rating: 9.0
[20]; rate 0.0620 kg/ha
  AMBEL herbicidal rating: 9.0
[21]; rate 0.0320 kg/ha
  CHEAL herbicidal rating: 9.0
[21]; rate 0.0620 kg/ha
  CHEAL herbicidal rating: 9.0
[22]; rate 0.0320 kg/ha
  CASOB herbicidal rating: 9.0
[22]; rate 0.0620 kg/ha
  CASOB herbicidal rating: 9.0
ORYSAT (Rice, Tebonnet) [23]
  Preemergence herbicidal rating ORYSAT: 8.0
[24]
  Preemergence herbicidal rating ABUTH: 9.0
ORYSAT (Rice, Tebonnet) [25]; rate 0.0080 kg/ha
  herbicidal rating, ORYSAT (rice tolerance): 7.0
ORYSAT (Rice, Tebonnet) [25]; rate 0.0320 kg/ha
  herbicidal rating, ORYSAT (rice tolerance): 9.0
ORYSAT (Rice, Tebonnet) [25]; rate 0.1250 kg/ha
  herbicidal rating, ORYSAT (rice tolerance): 9.0
[26]; rate 0.0320 kg/ha
  ABUTH herbicidal rating: 9.0
[26]; rate 0.0620 kg/ha
  ABUTH herbicidal rating: 9.0
[27]
  Preemergence herbicidal rating IPOHE: 9.0
[28]; rate 0.0320 kg/ha
  GLXMAW herbicidal rating: 6.5
[28]; rate 0.0620 kg/ha
  GLXMAW herbicidal rating: 9.0
